Assays:
Settings in all cases: in vivo
[1] = Oral bioavailability in rat; format: ADME, organism-based
[2] = (§1) Half life in rat; format: ADME, organism-based
[3] = Cmax in squirrel monkey at 10 mg/kg; format: ADME, organism-based, Saimiri sciureus; design: dose 10 mg/kg
[4] = Cmax in squirrel monkey at 3 mg/kg; format: ADME, organism-based, Saimiri sciureus; design: dose 3 mg/kg
Rattus norvegicus = species on record: Rattus norvegicus; assay: as §1; format: ADME, organism-based

With `CC(C)(c1cc(-c2cccc(-c3ccc[n+]([O-])c3)c2)c2ncccc2c1)S(C)(=O)=O` the bioavailability [1] was 76% and the half-life [2] was 1.2 h.
Molecule `Cc1ccc(-c2cccc(-c3cc(C(C)(C)S(C)(=O)=O)cc4cccnc34)c2)c[n+]1[O-]` has a bioavailability [1] of 83% and a half-life [2] of 1.2 h.
Molecule `CC(C)(c1cc(-c2cccc(-c3ccc(CO)[n+]([O-])c3)c2)c2ncccc2c1)S(C)(=O)=O` has a bioavailability [1] of 10% and a half-life [2] of 1.7 h.
Molecule `CC(C)NC(=O)Nc1ccc(-c2cccc(-c3cc(C(C)(C)S(C)(=O)=O)cc4cccnc34)c2)c[n+]1[O-]` has a bioavailability [1] of 11% and a half-life [2] of 0.7 h.
For `CC(=O)Nc1ccc(-c2cccc(-c3cc(C(C)(C)S(C)(=O)=O)cc4cccnc34)c2)c[n+]1[O-]`, the bioavailability [1] was 47% and the half-life [2] was 0.2 h.
With `CC(C)(O)c1cc(-c2cccc(-c3cc(C(C)(C)S(C)(=O)=O)cc4cccnc34)c2)c[n+]([O-])c1` the bioavailability [1] was 0% and the half-life [2] was under 1 h.
In the case of `CC(C)(c1cc(-c2cccc(-c3cc(C(=O)NC4CC4)c[n+]([O-])c3)c2)c2ncccc2c1)S(C)(=O)=O`, the bioavailability [1] is reported as 0% and the half-life [2] is reported as under 1 h.
`CC(C)(c1cc(-c2cccc(-c3ccc(C(=O)O)cc3)c2)c2ncccc2c1)S(C)(=O)=O` showed a bioavailability [1] of 54% and a half-life [2] of 2 h.
Work on `CC(C)(c1cc(-c2cccc(-c3ccc(CCC(=O)O)cc3)c2)c2ncccc2c1)S(C)(=O)=O` yielded a bioavailability [1] of 24% and a half-life [2] of 1 h.
Work on `CC(C)(CC(=O)O)c1ccc(-c2cccc(-c3cc(C(C)(C)S(C)(=O)=O)cc4cccnc34)c2)cc1` yielded a bioavailability [1] of 100% and a half-life [2] of 2 h.
Work on `Cc1noc(/C(=C/c2cccc(-c3cc(C(C)(C)S(C)(=O)=O)cc4cccnc34)c2)c2ccc(S(C)(=O)=O)cc2)n1` yielded a Cmax [3] of 3.8 µM.
Molecule `CC(C)(c1cc(-c2cccc(-c3ccc(C(=O)NC4CC4)[n+]([O-])c3)c2)c2ncccc2c1)S(C)(=O)=O` has a bioavailability [1] of 100% and a half-life [2] of 6.5 h.
`CC(C)(c1cc(-c2cccc(-c3ccc(CC(=O)O)cc3)c2)c2ncccc2c1)S(C)(=O)=O` gave a bioavailability [1] of 60% and a half-life [2] of 0.3 h.
`CC(C)(O)c1ccc(-c2cccc(-c3cc(C(C)(C)S(C)(=O)=O)cc4cccnc34)c2)c[n+]1[O-]` showed a bioavailability [1] of 100%, a half-life [2] of 1.5 h and a Cmax [4] of 41 µM.
Molecule `CC(C)(c1cc(-c2cccc(-c3ccc(C4CC4C(=O)O)cc3)c2)c2ncccc2c1)S(C)(=O)=O` (single isomer, unassigned) has a bioavailability [1] of 100%, a half-life [2] of 2 h and a Cmax [3] of 65 µM.
`CC(C)(c1cc(-c2cccc(-c3ccc(C4CC4C(=O)O)cc3)c2)c2ncccc2c1)S(C)(=O)=O` (single isomer, unassigned; enantiomer A) showed a t1/2 (Rattus norvegicus) of 2 h.

Source: ChEMBL document CHEMBL1141472, “Design, synthesis, and biological evaluation of 8-biarylquinolines: a novel class of PDE4 inhibitors” (Bioorg Med Chem Lett, 2008)
